Results reported in patent publication US6476049B2, “Therapeutic agent for intermittent claudication” (Ajinomoto Co., Inc., priority 1999, dated 2002).
Structures can show the parent of a compound that is named as a salt.

Experiments:
[1] = tested on: Rabbit Intermittent Claudication Model (injured limb of the high cholesterol chow-loaded rabbit); experiment: Rabbit intermittent claudication model: recovery time of tissue oxygen saturation after exercise (near infrared spectrophotometer); assay type: in vivo, male New Zealand White Rabbits; conditions: for Recovery Time of Tissue Oxygen Saturation: 3 days after operation, injured limb, high cholesterol chow-loaded rabbit; for Effect on the recovery time of the tissue oxygen saturation (in words): vs control, drug of the invention 3 mg/kg, pentoxifylline 300 mg/kg, cilostazol 100 mg/kg, sarpogrelate hydrochloride 300 mg/kg
From the text: To male New Zealand White Rabbits, there was given 1% cholesterol-containing RC4 (available from ORIENTAL KOBO Co., Ltd.) chow over 4 weeks (100 g/day/animal) to obtain a high cholesterol-loaded group (8 animals), while normal RC4 (available from ORIENTAL KOBO Co., Ltd.) chow was given to a group of such animals (normal feed-loaded group: 6 animals). The groins of these animals belonging to these two groups were incised in their supine position, under the anesthesia with ketamine and xylazine, followed by exposing the right femoral artery and then repeating, three times, the balloon injury treatment, which comprises the steps of inserting a Fogarty's balloon catheter in a length of 7 cm into the artery, expanding the balloon catheter to a diameter of 5 mm within the right iliac artery and then pulling out the catheter while the balloon catheter was still in the expanded state and finally ligating the right femoral artery. After 3 days from the operation, the both gluteal regions and the posterior of the lower limbs were dissected in the supine position of the animal under the anesthesia with ketamine and xylazine. The probe of a near infrared spectrophotometer was directly fitted to the interior of the both side gastrocnemius muscles, followed by application of electrical stimulation at 1 Hz to the sciatic nerves on both sides for 2 minutes as exercise loads.
After the application of exercise, these animals were kept quiet rest, followed by monitoring the process in which the degree of tissue oxygen saturation reduced during exercise was recovered, using an multi-wavelength-type near infrared spectrophotometer to thus obtain the time required for the recovery of the degree of tissue oxygen saturation in the both limbs. As such multi-wavelength-type near infrared spectrophotometer, there was used MCPD-2000 available from OTSUKA ELECTRONICS Co., Ltd., which had been improved in such a manner that the device could almost simultaneously detect the tissue oxygen saturation for the both side gastrocnemius muscles. In this respect, the distance between the light guide and detector of near infrared light rays was set at a level of 5 mm. A ½ recovered tissue oxygen saturation (½ StO2), which was an intermediate value of the tissue oxygen saturation observed after the application of the exercise (the minimum tissue oxygen saturation after exercise) and the tissue oxygen saturation observed after the recovery of exercise (the maximum tissue oxygen saturation after exercise) and then the recovery time was defined to be the time required for arriving at the level of ½ StO2 after the end of exercise-application.
To male New Zealand White Rabbits, there was given 1% cholesterol-containing RC4 (available from ORIENTAL KOBO Co., Ltd.) chow over 4 weeks (100 g/day/animal), followed by dividing these animals into two groups in such a manner that the total cholesterol levels in the plasma were identical to one another and then subjecting these two groups to treatments identical to those used in the foregoing model.
To these animals, there was orally administered, once a day, 1-formyl-N-(2-(4-(5H-dibenzo [a, d] cyclohepten-5-ylidene)-1-piperidinyl)) ethyl isonipecotic acid amide represented by the formula (2) after dissolving it in water in an amount of 3 mg/kg over the term extending from the day following the operation to the day on which the near infrared spectrophotometric measurement was initiated. On the other hand, distilled water was orally administered to the control group once a day. After 3 days from the operation, the recovery time of the tissue oxygen saturation after exercise was determined using a near infrared spectrophotometer.
The same procedures used in Example 1 were repeated except for using 300 mg/kg of pentoxifylline in place of the compound represented by the formula (2) to thus carry out the determination. […]

[2] = tested on: Rat Intermittent Claudication Model; experiment: Rat intermittent claudication model (lauric acid injection): maximum running/walking time on treadmill; assay type: in vivo, male SD rats; conditions: for Maximum Walking Time, recovery rate relative to day 1 (defined to be 100), After 1 day: after 1 day from lauric acid injection (baseline = 100); for Maximum Walking Time, recovery rate relative to day 1 (defined to be 100), After 1 day / Maximum Walking Time, recovery rate relative to day 1 (= 100), After 3 days / Maximum Walking Time, recovery rate relative to day 1 (= 100), After 7 days / Maximum Walking Time, recovery rate relative to day 1 (= 100), After 14 days / Maximum Walking Time, recovery rate relative to day 1 (= 100), After 21 days: formula (2) hydrochloride 3 mg/kg/day, pentoxifylline 60 mg/kg/day, oral; for Maximum Walking Time, recovery rate relative to day 1 (= 100), After 3 days: after 3 days from lauric acid injection, control 132; for Maximum Walking Time, recovery rate relative to day 1 (= 100), After 7 days: after 7 days from lauric acid injection, control 177; for Maximum Walking Time, recovery rate relative to day 1 (= 100), After 14 days: after 14 days from lauric acid injection, control 198; for Maximum Walking Time, recovery rate relative to day 1 (= 100), After 21 days: after 21 days from lauric acid injection, control 215
Description: (§1) Using an improved model of Corcico et al. (Corcico N. Cardiovasc. Drugs Ther., 1993, 7:241-251), male SD rats were made run on a rat treadmill (available from NATSUME SEISAKUSHO) at a speed of 10 m/min, followed by stepwise raising the running speed by 5 m/min every 3 minutes to thus determine the time (the maximum running time) required till the rats could not run any more and to thus evaluate the running ability of each animal. On the following day, these rats were anesthetized with pentobarbital and then 3.5 mg/ml of sodium laurate solution (available from SIGMA Company; dissolved in a 0.5% glucose aqueous solution) was injected into the right and left femoral arteries at a dose of 100 μl/leg to thus induce artificial intermittent claudication in the animals.
After 1, 3, 7, 14 and 21 days from the injection of the sodium laurate solution, the maximum running time was determined according to the method described above.
(§2) The same procedures used in Reference Example 2 were repeated using male SD rats (15 animals) to thus establish a rat intermittent claudication model. On the day following the lauric acid-injection, each animal was inspected for the maximum running time and these animals were divided into three groups so that the running abilities of these groups were almost identical to one another. To the first group (drug-administered group), there was orally administered, once a day, 3 mg/kg of hydrochloride of the compound represented by the formula (2) dissolved in distilled water over the term extending from the day following the lauric acid injection to 21st day, while 60 mg/kg of pentoxifylline (available from SIGMA Company) dissolved in distilled water was orally administered to the second group once a day as a comparative example. To the third group (control group), there was orally administered distilled water once a day. After 3, 7, 14 and 21 days from the lauric acid-injection, the maximum running time of each animal was determined to thus evaluate the recovery rate relative to the maximum walking time observed after the day following the lauric acid-injection (this was defined to be 100). In addition, the presence of any lesion on the limbs was simultaneously confirmed. The presence of any lesion on the lower limb was rated according to the following 6 evaluation criteria: 0: normal and all of the 5 toes could widely be opened; 1: limbs could look upward, but the toes could not be opened; 2: the limbs looked downward; 3: not less than 3 claws were necrosed; 4: not less than 3 toes were necrosed; and 5: not less than 3 toes were left out.

[3] = tested on: Rat Intermittent Claudication Model; experiment: Rat intermittent claudication model (lauric acid injection): score for lower limb lesion; assay type: in vivo, male SD rats; conditions: for Score for Lower Limb Lesion, After 1 day / Score for Lower Limb Lesion, After 3 days / Score for Lower Limb Lesion, After 7 days / Score for Lower Limb Lesion, After 14 days / Score for Lower Limb Lesion, After 21 days: score 0-5, formula (2) hydrochloride 3 mg/kg/day, pentoxifylline 60 mg/kg/day, oral; for Score for Lower Limb Lesion, After 1 day: after 1 day from lauric acid injection (baseline), control 4.0; for Score for Lower Limb Lesion, After 3 days / Score for Lower Limb Lesion, After 7 days / Score for Lower Limb Lesion, After 14 days: control 3.8; for Score for Lower Limb Lesion, After 21 days: control 3.4
Description: as §1, §2

Compound | Recovery Time of Tissue Oxygen Saturation ([1]; 100 mg/kg orally once a day, control 2.8 ± 0.97) | Effect on the recovery time of the tissue oxygen saturation (in words) [1] | Maximum Walking Time, recovery rate relative to day 1 (defined to be 100), After 1 day [2] | Maximum Walking Time, recovery rate relative to day 1 (= 100), After 3 days [2] | Maximum Walking Time, recovery rate relative to day 1 (= 100), After 7 days [2] | Maximum Walking Time, recovery rate relative to day 1 (= 100), After 14 days [2] | Maximum Walking Time, recovery rate relative to day 1 (= 100), After 21 days [2] | Recovery Time of Tissue Oxygen Saturation ([1]; 3 mg/kg orally once a day, control 3.8 ± 0.46) | Score for Lower Limb Lesion, After 1 day [3] | Score for Lower Limb Lesion, After 3 days [3] | Score for Lower Limb Lesion, After 7 days [3] | Score for Lower Limb Lesion, After 14 days [3] | Score for Lower Limb Lesion, After 21 days [3] | Effect on the maximum walking time (in words) ([2]; vs control group, formula (2) hydrochloride 3 mg/kg (after 7 days), pentoxifylline 60 mg/kg) | Recovery Time of Tissue Oxygen Saturation ([1]; 300 mg/kg orally once a day, control 3.8 ± 1.28) | Effect on the development of lesions of the lower limbs (in words) ([3]; vs control group, formula (2) hydrochloride 3 mg/kg, pentoxifylline 60 mg/kg) | Recovery Time of Tissue Oxygen Saturation ([1]; 300 mg/kg (table) orally once a day, control 3.9 ± 1.08)
O=C1CCc2cc(OCCCCc3nnnn3C3CCCCC3)ccc2N1 [Cilostazol, cilostazol] | 3.5 ± 0.52 min | does not show any substantial reduction of the recovery time |  |  |  |  |  |  |  |  |  |  |  |  |  |  | 
O=CN1CCC(C(=O)NCCN2CCC(=C3c4ccccc4C=Cc4ccccc43)CC2)CC1 [Compound of Formula (2), 1-formyl-N-(2-(4-(5H-dibenzo[a,d]cyclohepten-5-ylidene)-1-piperidinyl))-ethyl-isonipecotic acid amide] |  |  | 100 | 189 | 256 | 252 | 317 | 2.0 ± 0.40 min | 4.0 | 3.2 | 2.2 | 1.7 | 1.5 |  |  |  | 
CC(=O)CCCCn1c(=O)c2c(ncn2C)n(C)c1=O [Pentoxifylline, pentoxifylline] |  | did not show any reduction in the recovery time | 100 | 178 | 189 | 211 | 249 |  | 4.0 | 3.7 | 3.7 | 3.3 | 2.5 | had a tendency of increasing the maximum walking time | 7.1 ± 1.65 min | the effect was still insufficient | 
COc1cccc(CCc2ccccc2OCC(CN(C)C)OC(=O)CCC(=O)O)c1 (centres unmarked) [Sarpogrelate · HCl, sarpogrelate hydrochloride] |  | did not show any reduction of the recovery time |  |  |  |  |  |  |  |  |  |  |  |  |  |  | 3.4 ± 1.33 min
